Values of other authors, collected in patent publication US20240173371A1, “RHODIOLA CRENULATA COMPOSITIONS AND METHODS OF MAKING THE SAME” (NutriScience Innovations LLC, priority 2022, published 2024).

Legend:
[1] = rats, oral, 20 and 40 mg/kg over two weeks
[2] = rats, oral, 20 and 40 mg/kg over two weeks; remark: listed apart in the source
[3] = tested on: CD3+T cells and CD4+T helper cells; details: Wistar male rats, supplementation

OC[C@H]1O[C@@H](OCCc2ccc(O)cc2)[C@H](O)[C@@H](O)[C@@H]1O [salidroside]
olfactory-bulbectomy-induced hyperactivity [1]: alleviated
outcome of a forced swim test [2]: improved
CD4+T helper cells [3]: increased
total CD3+T cells [3]: increased
